Conditions: Liquid, Closed cell (Static) method

FCC(F)(F)F [1,1,1,2-tetrafluoroethane]
Conditions	vapor or sublimation pressure [kPa]
243.14 K	84.1
245.14 K	92.4
247.14 K	101.4
249.15 K	111.1
251.16 K	121.4
253.15 K	132.5
255.14 K	144.3
257.16 K	157.1
259.17 K	170.6
261.16 K	185
263.14 K	200.2
265.13 K	216.4
267.13 K	233.7
269.14 K	252.1
271.14 K	271.6
273.13 K	292.1
275.13 K	313.9
277.16 K	337.2
279.16 K	361.5
281.16 K	387.3
283.17 K	414.3
285.14 K	442.1
287.15 K	472.3
289.14 K	503.4
291.14 K	536.3
293.14 K	570.9

CCC [propane]
Conditions	vapor or sublimation pressure [kPa]
233.22 K	111.3
235.21 K	121.3
237.18 K	131.7
239.2 K	143.2
241.22 K	155.4
243.21 K	168.2
245.26 K	182.1
247.13 K	195.6
249.14 K	211.1
251.14 K	227.4
253.14 K	244.5
255.14 K	262.5
257.13 K	281.5
259.15 K	301.8
261.12 K	322.7
263.15 K	345.3
265.14 K	368.6
267.14 K	393.2
269.14 K	419
271.14 K	446.1
273.14 K	474.3
275.14 K	503.9
277.14 K	535
279.15 K	567.4
281.15 K	601.4
283.15 K	636.7
285.15 K	673.5
287.14 K	711.8
289.15 K	752
291.16 K	793.7
293.15 K	836.8
